# According to US11814364B2, “Pyridine N-oxide derivatives useful as factor XIa inhibitors” (Janssen Pharmaceutica NV, priority 2021, dated 2023):
# Where a SMILES comes first, the peptide text is derived from it. The star is where a group is joined. AMC = Cc1cc(=O)oc2cc(N*)ccc12; Cbz = O=C(OCc1ccccc1)*
# Target: human plasma kallikrein (Homo sapiens, UniProt P03952)
# Assay: Kallikrein inhibition FLINT assay with quenched AMC peptide substrate Z-Gly-Pro-Arg-AMC (end point EP or kinetic KIN reads)
# Type: biochemical
# Settings: kinetic reads at 5 min intervals over 30 min; read-out: Kallikrein (KIN) IC50
# How it was run: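 Enzyme and compound were preincubated 30 min before adding 50 μM AMC substrate in pH 7.5 Tris/NaCl/CaCl2/BSA/CHAPS buffer. AMC release was read at 30 min endpoint or every 5 min.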
# human plasma kallikrein, sequence (P03952 391-638 limits assumed): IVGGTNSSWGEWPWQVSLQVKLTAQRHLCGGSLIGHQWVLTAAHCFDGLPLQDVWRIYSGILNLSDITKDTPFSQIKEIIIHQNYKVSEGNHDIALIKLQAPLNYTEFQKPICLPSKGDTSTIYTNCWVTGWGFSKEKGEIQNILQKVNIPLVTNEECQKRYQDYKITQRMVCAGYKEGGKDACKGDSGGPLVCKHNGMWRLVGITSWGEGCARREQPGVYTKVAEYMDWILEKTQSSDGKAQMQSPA
# human plasma kallikrein, sequence (P03952 20-390 partner limits assumed): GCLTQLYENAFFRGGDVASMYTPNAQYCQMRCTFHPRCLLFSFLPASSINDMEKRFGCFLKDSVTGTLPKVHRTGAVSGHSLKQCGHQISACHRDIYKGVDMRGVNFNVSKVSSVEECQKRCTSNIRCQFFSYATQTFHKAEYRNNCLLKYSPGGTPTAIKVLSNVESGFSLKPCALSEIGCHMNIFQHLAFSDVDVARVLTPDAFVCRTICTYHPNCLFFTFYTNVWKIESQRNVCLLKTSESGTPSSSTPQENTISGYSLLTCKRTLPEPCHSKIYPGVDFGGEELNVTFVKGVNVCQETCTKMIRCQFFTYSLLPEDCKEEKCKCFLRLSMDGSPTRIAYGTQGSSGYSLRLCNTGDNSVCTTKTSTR
row,IC50,Compound
1,544 nM,"NC(=O)c1ccc(-c2cnn(C(Cc3ccn(C(F)F)n3)c3ccc(-c4c(OC(F)F)ccc(Cl)c4F)c[n+]3[O-])c2)cc1F (single isomer, unassigned) [Example Q72]"
2,320 nM,[O-][n+]1cc(-c2c(-n3cnnn3)ccc(Cl)c2F)ccc1C(CC1CCCO1)n1cc(-c2ccncc2)cn1 (stereo not shown) [Example P186]
3,12.2 nM,O=C(O)c1ccc(-c2cnn(C(Cc3nccs3)c3ccc(-c4c(-n5cc(C(F)(F)F)nn5)ccc(Cl)c4F)c[n+]3[O-])c2)cc1F (stereo not shown) [Example P941]
4,180 nM,COCC[C@H](c1ccc(-c2c(-n3cnnn3)ccc(Cl)c2F)c[n+]1[O-])n1cc(-c2cnnn2C(F)F)cn1 [Example P690]
5,397 nM,"NC(=O)c1ccc(-c2cnn(C(CN3CCCC3=O)c3ccc(-c4c(-n5cc(C(F)(F)F)nn5)ccc(Cl)c4F)c[n+]3[O-])c2)cc1F (single isomer, unassigned) [Example P936]"
6,496 nM,[O-][n+]1cc(-c2c(-n3cnnn3)ccc(Cl)c2F)ccc1C(CC1CC1)n1cc(-c2cnco2)cn1 (stereo not shown) [Example P455]
7,889 nM,"NC(=O)c1ccc(-c2cnn(C(Cc3ccn(C(F)F)n3)c3ccc(-c4cc(Cl)ccc4-n4cc(C(F)(F)F)nn4)c[n+]3[O-])c2)cc1F (single isomer, unassigned) [Example P905]"
8,6.8 nM,Nc1ncc(-c2cnn(C(Cc3ccc(Cl)cc3)c3ccc(-c4c(-n5cnnn5)ccc(Cl)c4F)c[n+]3[O-])c2)cc1F (stereo not shown) [Example P162]
9,8 nM,Nc1ncc(-c2cnn([C@H](CC3CC3)c3ccc(-c4c(-n5cnnn5)ccc(Cl)c4F)c[n+]3[O-])c2)s1 [Example P614]
10,23 nM,[O-][n+]1cc(-c2cc(Cl)ccc2-n2cnnn2)ccc1C(Cn1cccn1)n1cc(-c2ccnc(C3CC3)c2)cn1 (stereo not shown) [Example P286]
11,2.7 nM,"NC(=O)c1ccc(-c2cnn(C(CCOC(F)F)c3ccc(-c4c(-n5cc(Cl)nn5)ccc(Cl)c4F)c[n+]3[O-])c2)cc1F (single isomer, unassigned) [Example P875]"
12,215 nM,"COC(=O)Nc1ccc(-c2cnn(C(Cc3ccc(Cl)cc3)c3ccc(-c4c(-n5cnnn5)ccc(Cl)c4F)c[n+]3[O-])c2)cc1 (single isomer, unassigned) [Example P159]"
13,31.3 nM,NC(=O)c1ccc(-c2cnn(C(CCOC(F)F)c3ccc(-c4c(-n5cc(C(F)(F)F)nn5)ccc(Cl)c4F)c[n+]3[O-])c2)cc1F (stereo not shown) [Example P844]
14,29.9 nM,"[O-][n+]1cc(-c2c(-n3cnnn3)ccc(Cl)c2F)ccc1C(C(O)c1ccccc1)n1cc(-c2ccnn2C(F)F)cn1 (single isomer, unassigned) [Example P713]"
15,7 nM,"COC(=O)Nc1ccc(-c2cnn(C(Cc3ccc(Cl)cc3)c3ccc(-c4c(-n5cnnn5)ccc(Cl)c4F)c[n+]3[O-])c2)cc1 (single isomer, unassigned) [Example P160]"
16,2.5 nM,"O=C(O)c1ccc(-c2cnn(C(Cc3ccn(C(F)F)n3)c3ccc(-c4c(-n5cc(C(F)(F)F)nn5)ccc(Cl)c4F)c[n+]3[O-])c2)cc1F (single isomer, unassigned) [Example P931]"
17,61.3 nM,CN(C)C(=O)CC(c1ccc(-c2c(-n3cc(C(F)(F)F)nn3)ccc(Cl)c2F)c[n+]1[O-])n1cc(-c2ccc(C(N)=O)c(F)c2)cn1 (stereo not shown) [Example P884]
18,29.5 nM,"COc1cc(C(CC2CC2)n2cc(-c3ncnn3C)cn2)[n+]([O-])cc1-c1cc(Cl)ccc1-n1cc(C(F)(F)F)nn1 (single isomer, unassigned) [Example P918]"
19,613 nM,N#Cc1cnn(CC(c2ccc(-c3c(-n4cc(C(F)(F)F)nn4)ccc(Cl)c3F)c[n+]2[O-])n2cc(-c3ccc(C(N)=O)c(F)c3)cn2)c1 (stereo not shown) [Example P955]
20,45.9 nM,[O-][n+]1cc(-c2cc(Cl)ccc2-n2cnnn2)ccc1C(Cc1ccc(Cl)cc1)n1cc(-c2ccnc(C(F)(F)F)c2)cn1 (stereo not shown) [Example P250]
21,175 nM,CN(CC(c1ccc(-c2c(-n3cnnn3)ccc(Cl)c2F)c[n+]1[O-])n1cc(-c2cc[n+]([O-])cc2)cn1)C(=O)c1ccccc1 (stereo not shown) [Example P344]
22,95.6 nM,CC(C)(C)c1cc(-c2cnn(C(Cn3cc(F)cn3)c3ccc(-c4c(-n5cnnn5)ccc(Cl)c4F)c[n+]3[O-])c2)cc[n+]1[O-] (stereo not shown) [Example P436]
23,13.3 nM,COC(=O)Nc1ccc(-c2cnn(C(Cn3cc(F)cn3)c3ccc(-c4c(-n5cnnn5)ccc(Cl)c4F)c[n+]3[O-])c2)cc1 (stereo not shown) [Example P277]
24,72.5 nM,NC(=O)C1CC1CC(c1ccc(-c2c(-n3cnnn3)ccc(Cl)c2F)c[n+]1[O-])n1cc(-c2ccncc2)cn1 (stereo not shown) [Example P260]
25,192 nM,COCC(=O)Nc1ccc(-c2cnn(C(CC3CC3)c3ccc(-c4c(-n5cnnn5)ccc(Cl)c4F)c[n+]3[O-])c2)cc1 (stereo not shown) [Example P131]
26,8.5 nM,Cn1nnc(F)c1-c1cnn([C@H](CCOC(F)F)c2ccc(-c3c(-n4cnnn4)ccc(Cl)c3F)c[n+]2[O-])c1 [Example P724]
27,287 nM,O=C(O)c1ccc(-c2cnn(C(CC(=O)N3CCCC3)c3ccc(-c4c(-n5cc(C(F)(F)F)nn5)ccc(Cl)c4F)c[n+]3[O-])c2)cc1F (stereo not shown) [Example P901]

row,IC50,Compound
1,670 nM,[O-][n+]1cc(-c2c(-n3cc(C4CC4)nn3)ccc(Cl)c2F)ccc1C(Cn1cc(F)cn1)n1cc(-c2ccnc(C(F)(F)F)c2)cn1 (stereo not shown) [Example P485]
2,2.3 nM,Cn1ccc(CC(c2ccc(-c3c(C(F)F)ccc(Cl)c3F)c[n+]2[O-])n2cc(-c3ccc(C(=O)O)cc3)cn2)n1 (stereo not shown) [Example Q49]
3,3.7 nM,[O-][n+]1cc(-c2c(-n3cnnn3)ccc(Cl)c2F)ccc1C(Cn1cc(F)cn1)n1cc(-c2ccnc(C3CC3)c2)cn1 (stereo not shown) [Example P500]
4,78.3 nM,COCC[C@H](c1ccc(-c2c(-n3cnnn3)ccc(Cl)c2F)c[n+]1[O-])n1cc(-c2ccnn2C(F)F)cn1 [Example P561]
5,14.2 nM,"COc1cc(C(CC2CC2)n2cc(-c3ncnn3C(F)F)cn2)[n+]([O-])cc1-c1cc(Cl)ccc1-n1cc(C(F)(F)F)nn1 (single isomer, unassigned) [Example P940]"
6,4.9 nM,Nc1nc(Cl)c(-c2cnn(C(CC3CC3)c3ccc(-c4c(-n5cnnn5)ccc(Cl)c4F)c[n+]3[O-])c2)s1 (stereo not shown) [Example P624]
7,131 nM,CC(=O)N(C)CC(c1ccc(-c2c(-n3cnnn3)ccc(Cl)c2F)c[n+]1[O-])n1cc(-c2cc[n+]([O-])cc2)cn1 (stereo not shown) [Example P351]
8,87.1 nM,NC(=O)c1ccc(-c2cnn(C(CC(=O)N3CCCC3)c3ccc(-c4c(-n5cc(C(F)(F)F)nn5)ccc(Cl)c4F)c[n+]3[O-])c2)cc1F (stereo not shown) [Example P902]
9,24.9 nM,CN(CC(c1ccc(-c2c(-n3cnnn3)ccc(Cl)c2F)c[n+]1[O-])n1cc(-c2ccncc2)cn1)C(=O)Cc1ccccc1 (stereo not shown) [Example P299]
10,506 nM,COC(C)(C)C[C@H](c1ccc(-c2c(-n3cnnn3)ccc(Cl)c2F)c[n+]1[O-])n1cc(-c2ccnn2C(F)F)cn1 [Example P646]
11,51.9 nM,O=C(O)c1ccc(-c2cnn(C(CC3CC3c3ccc(-c4ccccc4)cc3)c3ccc(-c4cc(Cl)ccc4-n4cnnn4)c[n+]3[O-])c2)cc1 (stereo not shown) [Example P61]
12,893 nM,[O-][n+]1cc(-c2c(-n3cnnn3)ccc(Cl)c2F)ccc1C(Cn1cc(F)cn1)n1cc(-c2ccnn2C(F)F)cn1 (stereo not shown) [Example P645]
13,588 nM,[O-][n+]1cc(-c2c(-n3cnnn3)ccc(Cl)c2F)ccc1[C@H](Cc1cn(C(F)F)nn1)n1cc(-c2ccnc(C(F)(F)F)c2)cn1 [Example P746]
14,25.2 nM,COc1cc(C(CC2CC2)n2cc(-c3ccc(C(N)=O)c(F)c3)cn2)[n+]([O-])cc1-c1cc(Cl)ccc1C#N (stereo not shown) [Example Q59]
15,45.1 nM,CCOCCC(c1ccc(-c2c(-n3cnnn3)ccc(Cl)c2F)c[n+]1[O-])n1cc(-c2ccc(NC(=O)OC)cc2)cn1 (stereo not shown) [Example P204]
16,212 nM,N#Cc1cc(-c2cnn(C(CC3CC3)c3ccc(-c4c(-n5cnnn5)ccc(Cl)c4F)c[n+]3[O-])c2)ccn1 (stereo not shown) [Example P294]
17,46.3 nM,"[O-][n+]1cc(-c2c(-n3cnnn3)ccc(Cl)c2F)ccc1C(CC1CC1)n1cc(-c2ccnc(F)c2)cn1 (single isomer, unassigned) [Example P264]"
18,12 nM,"O=C(c1ccn(CC(c2ccc(-c3c(-n4cnnn4)ccc(Cl)c3F)c[n+]2[O-])n2cc(-c3ccnc(C(F)(F)F)c3)cn2)n1)N1CCCCC1 (single isomer, unassigned) [Example P449]"
19,80.9 nM,"COc1cc(C(CC2CC2)n2cc(-c3c(F)nnn3C)cn2)[n+]([O-])cc1-c1cc(Cl)ccc1C#N (single isomer, unassigned) [Example Q62]"
20,128 nM,[O-][n+]1ccc(-c2cnn(C(Cn3cccn3)c3ccc(-c4c(-n5cnnn5)ccc(Cl)c4F)c[n+]3[O-])c2)nc1 (stereo not shown) [Example P320]
21,68.8 nM,[2H]C([2H])(C[C@H](c1ccc(-c2c(-n3cc(C(F)(F)F)nn3)ccc(Cl)c2F)c[n+]1[O-])n1cc(-c2ncnn2C)cn1)OC(F)F [Example P820]
22,23.7 nM,[O-][n+]1cc(-c2c(-n3cnnn3)ccc(Cl)c2F)ccc1C(Cn1ccc(C(F)(F)F)n1)n1cc(-c2ccnc(F)c2)cn1 (stereo not shown) [Example P357]
23,16.2 nM,[O-][n+]1cc(-c2c(-n3cnnn3)ccc(Cl)c2F)ccc1[C@@H](CCOC(F)F)n1cc(-c2cncn2C(F)F)cn1 [Example P771]
24,298 nM,"CCC(c1ccc(-c2c(-n3cnnn3)ccc(Cl)c2F)c[n+]1[O-])n1cc(-c2cc[n+]([O-])cc2)cn1 (single isomer, unassigned) [Example P234]"
25,923 nM,COCCC(c1ccc(-c2c(-n3cnnn3)ccc(Cl)c2F)c[n+]1[O-])n1cc(C2CCN(C(=O)OC)CC2)cn1 (stereo not shown) [Example P166]
26,64.1 nM,"CN(CC(c1ccc(-c2c(-n3cnnn3)ccc(Cl)c2F)c[n+]1[O-])n1cc(-c2ccnc(C(F)(F)F)c2)cn1)C(=O)C1CC1 (single isomer, unassigned) [Example P428]"

# Same assay, conditions: peptide substrate of kallikrein; titration data fit to Michaelis-Menten equation
Km,kcat,Compound
40 µM,0.76 s⁻¹,"Cc1cc(=O)oc2cc(NC(=O)[C@H](CCCNC(=N)N)NC(=O)[C@@H]3CCCN3C(=O)CNC(=O)OCc3ccccc3)ccc12 [Z-Gly-Pro-Arg-AMC, reference compound] (Cbz-Gly-Pro-Arg-{AMC})"
